Measurements taken from ChEMBL document CHEMBL1201862, “PubChem BioAssay data set” (2004).
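Where inhibition never reached the appropriate level, the endpoint shown equals the highest concentration tested. Otherwise, values were interpolated linearly from a five-concentration, 48-hour dose response in 96-well plates. The concentration for 50% growth inhibition is given as GI50.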 Calls of active or inactive are those of the source. Rule as the data show it: active = GI50 up to about 1.1 µM and inactive = higher.

Columns and labels:
Experiment in all cases: NCI tumour cell line growth inhibition, 48 h
[1] = test system: CAKI-1
[2] = test system: NCI/ADR-RES
[3] = test system: A549
[4] = test system: EKVX
[5] = test system: MDA-MB-231
[6] = test system: HT-29
[7] = test system: K562
[8] = test system: A498
[9] = test system: Malme-3M
[10] = test system: KM12
[11] = test system: RPMI-8226
[12] = test system: SNB-75
[13] = test system: SNB-19
[14] = test system: LOX IMVI
[15] = test system: UACC-62
[16] = test system: 786-0
[17] = test system: ACHN
[18] = test system: SK-MEL-5
[19] = test system: HOP-92
[20] = test system: T47D

Structure (SMILES)	GI50 [1]	GI50 [2]	GI50 [3]	GI50 [4]	GI50 [5]	GI50 [6]	GI50 [7]	GI50 [8]	GI50 [9]	GI50 [10]	GI50 [11]	GI50 [12]	GI50 [13]	GI50 [14]	GI50 [15]	GI50 [16]	GI50 [17]	GI50 [18]	GI50 [19]	GI50 [20]
CCN1CC2=C(N=c3s/c(=C\c4ccc(Cl)cc4)c(=O)n3C2c2ccc(Cl)cc2)/C(=C/c2ccc(Cl)cc2)C1 (stereo not drawn)	16.4 µM (inactive)	> 100 µM (inactive)	> 100 µM (inactive)	> 100 µM (inactive)	25.6 µM (inactive)	> 100 µM (inactive)	> 100 µM (inactive)	24.6 µM (inactive)	> 100 µM (inactive)	> 100 µM (inactive)	84.9 µM (inactive)	2.37 µM (inactive)	44.4 µM (inactive)	> 100 µM (inactive)	32.2 µM (inactive)	10.4 µM (inactive)	58.7 µM (inactive)	> 100 µM (inactive)		
CC[C@]12C=CCN3CCC4(c5cc(/N=N/c6ccccc6)c(OC)cc5N(C)[C@H]4[C@@](O)(C(=O)OC)[C@@H]1OC(C)=O)[C@@H]32 (stereo partly drawn)	24.2 µM (inactive)	20.4 µM (inactive)	17.5 µM (inactive)	16.5 µM (inactive)	16.2 µM (inactive)	16.3 µM (inactive)	18.8 µM (inactive)	16.6 µM (inactive)	17.8 µM (inactive)	18.7 µM (inactive)	19.2 µM (inactive)		20.5 µM (inactive)	17.3 µM (inactive)	14.5 µM (inactive)	16.9 µM (inactive)	16.1 µM (inactive)	19.9 µM (inactive)	15.4 µM (inactive)	
COc1cc2c(cc1C)NC(=O)/C2=C\c1ccncc1	3.57 µM (inactive)	3.58 µM (inactive)	15.3 µM (inactive)	6.7 µM (inactive)		4.92 µM (inactive)	3.66 µM (inactive)		15.5 µM (inactive)	3.48 µM (inactive)		13.4 µM (inactive)	5.2 µM (inactive)		5.53 µM (inactive)	5.35 µM (inactive)	6.05 µM (inactive)	2.73 µM (inactive)	26.1 µM (inactive)	3.81 µM (inactive)
C/C=C/[C@@]1(OC(=O)c2ccccc2)C[C@@H]2CCCC[C@@H]21	17.6 µM (inactive)	20.5 µM (inactive)	18.5 µM (inactive)	16.7 µM (inactive)	20.6 µM (inactive)	16.3 µM (inactive)	19.8 µM (inactive)		17.5 µM (inactive)	17.4 µM (inactive)	16.6 µM (inactive)	14.2 µM (inactive)	17.3 µM (inactive)	21.9 µM (inactive)	16.7 µM (inactive)	17.7 µM (inactive)	17.7 µM (inactive)	15.9 µM (inactive)		18.6 µM (inactive)
Cn1c2ccccc2c(=O)c2cccc(C(=O)NCC(=O)O)c21		60.3 µM (inactive)	> 100 µM (inactive)	36.8 µM (inactive)	> 100 µM (inactive)	> 100 µM (inactive)	> 100 µM (inactive)		> 100 µM (inactive)	> 100 µM (inactive)	> 100 µM (inactive)	88.9 µM (inactive)	> 100 µM (inactive)	71.3 µM (inactive)	> 100 µM (inactive)	> 100 µM (inactive)	> 100 µM (inactive)	> 100 µM (inactive)		> 100 µM (inactive)
N/N=C1\CCCc2c1no[n+]2[O-]	> 100 µM (inactive)	> 100 µM (inactive)	> 100 µM (inactive)	> 100 µM (inactive)	> 100 µM (inactive)	> 100 µM (inactive)	> 100 µM (inactive)	> 100 µM (inactive)	> 100 µM (inactive)	> 100 µM (inactive)	> 100 µM (inactive)	> 100 µM (inactive)	> 100 µM (inactive)	> 100 µM (inactive)	> 100 µM (inactive)	> 100 µM (inactive)	> 100 µM (inactive)	> 100 µM (inactive)		
Cc1ccc2[nH]c3c(c2c1)CCC/C3=N/N=C(N)N	1.39 µM (inactive)	1.66 µM (inactive)	1.89 µM (inactive)	1.92 µM (inactive)	1.39 µM (inactive)	1.64 µM (inactive)	2.08 µM (inactive)	7.14 µM (inactive)	2.11 µM (inactive)	1.63 µM (inactive)	2.5 µM (inactive)	1.34 µM (inactive)	1.99 µM (inactive)	1.84 µM (inactive)	2.16 µM (inactive)	2.07 µM (inactive)	1.89 µM (inactive)	1.9 µM (inactive)	2.33 µM (inactive)	
Cn1cccc1-c1ccc(-c2ccc(CO)[se]2)[se]1	0.188 µM (active)	22.8 µM (inactive)	15.2 µM (inactive)	61.1 µM (inactive)	29.8 µM (inactive)	12.6 µM (inactive)	0.986 µM (active)	1.77 µM (inactive)	66.1 µM (inactive)	8.99 µM (inactive)	7.98 µM (inactive)	6.08 µM (inactive)	17.8 µM (inactive)	19.1 µM (inactive)	9.57 µM (inactive)	14.2 µM (inactive)	38.9 µM (inactive)	11.4 µM (inactive)	> 100 µM (inactive)	
Cc1ccc(S(=O)(=O)N/N=C2\C3CC4CC(C3)C2C4)cc1 (stereo not drawn)	> 100 µM (inactive)	> 100 µM (inactive)	> 100 µM (inactive)		> 100 µM (inactive)	> 100 µM (inactive)	> 100 µM (inactive)		> 100 µM (inactive)	> 100 µM (inactive)	> 100 µM (inactive)	> 100 µM (inactive)	> 100 µM (inactive)	> 100 µM (inactive)	> 100 µM (inactive)	> 100 µM (inactive)		> 100 µM (inactive)		> 100 µM (inactive)
COc1cc(C2SC(=N)Nc3c2c(C)nn3C(=O)Cc2ccccc2)cc(OC)c1OC (stereo not drawn)	> 100 µM (inactive)		> 100 µM (inactive)	> 100 µM (inactive)	> 100 µM (inactive)	> 100 µM (inactive)	> 100 µM (inactive)	> 100 µM (inactive)		> 100 µM (inactive)	> 100 µM (inactive)	28.4 µM (inactive)	> 100 µM (inactive)	> 100 µM (inactive)	> 100 µM (inactive)	> 100 µM (inactive)	> 100 µM (inactive)	> 100 µM (inactive)		> 100 µM (inactive)
N#CC(CCN1CCC(Nc2ccccc2)(c2nnnn2C2CCCCC2)CC1)(c1ccccc1)c1ccccc1		> 100 µM (inactive)	> 100 µM (inactive)	> 100 µM (inactive)	> 100 µM (inactive)	> 100 µM (inactive)	> 100 µM (inactive)	> 100 µM (inactive)	> 100 µM (inactive)	> 100 µM (inactive)	> 100 µM (inactive)	> 100 µM (inactive)	> 100 µM (inactive)	> 100 µM (inactive)	> 100 µM (inactive)	> 100 µM (inactive)	> 100 µM (inactive)	> 100 µM (inactive)		
Cc1ccccc1C(O)(c1nccn1C)c1nccn1C	> 100 µM (inactive)	> 100 µM (inactive)	> 100 µM (inactive)	> 100 µM (inactive)		> 100 µM (inactive)	> 100 µM (inactive)	> 100 µM (inactive)	> 100 µM (inactive)	> 100 µM (inactive)		> 100 µM (inactive)	> 100 µM (inactive)		> 100 µM (inactive)	> 100 µM (inactive)	> 100 µM (inactive)	> 100 µM (inactive)	> 100 µM (inactive)	> 100 µM (inactive)
C=C1C2C[C@@H]3O[C@H]4C[C@H]5O[C@@]6(C[C@@H]7O[C@]8(C[C@H](C)[C@@H]9O[C@@H]%10CC(CO)O[C@@H]%10C[C@@H]9O8)C[C@H](C)[C@@H]7O6)C[C@H]5O[C@H]4[C@H](C)[C@H]3OC(=O)C[C@H]3CC[C@@H]4OC5[C@H]6O[C@]7(CC[C@H]8CC(=C)[C@H](CC[C@@H](C[C@H]1C)O2)O8)CC6O[C@@H]5[C@@H](O7)[C@H]4O3 (stereo partly drawn)	< 0.0001 µM (active)	< 0.0001 µM (active)	< 0.0001 µM (active)	< 0.0001 µM (active)	< 0.0001 µM (active)		< 0.0001 µM (active)	0.000502 µM (active)	< 0.0001 µM (active)	< 0.0001 µM (active)	< 0.0001 µM (active)	< 0.0001 µM (active)	< 0.0001 µM (active)	< 0.0001 µM (active)	< 0.0001 µM (active)	< 0.0001 µM (active)	< 0.0001 µM (active)	< 0.0001 µM (active)	< 0.0001 µM (active)	
CCN(CC)CCC(=O)/C=C/c1ccccc1	3.27 µM (inactive)	17.5 µM (inactive)	19 µM (inactive)	13.9 µM (inactive)	15.5 µM (inactive)	5.05 µM (inactive)	3.05 µM (inactive)	17.8 µM (inactive)	15.9 µM (inactive)	6.5 µM (inactive)	1.97 µM (inactive)	13.2 µM (inactive)	18.1 µM (inactive)	2.54 µM (inactive)		2.67 µM (inactive)	12.6 µM (inactive)	18.4 µM (inactive)	10.4 µM (inactive)	
Nc1nc(N)c2cc(Sc3cccc(C(F)(F)F)c3)ccc2n1 [WR-159412]	1.17 µM (inactive)	0.955 µM (active)	0.367 µM (active)	3.56 µM (inactive)	0.364 µM (active)	3.62 µM (inactive)	0.0883 µM (active)		1.02 µM (active)	2.59 µM (inactive)	1.93 µM (inactive)	3.17 µM (inactive)	4.81 µM (inactive)		0.755 µM (active)	0.624 µM (active)	0.885 µM (active)	3.71 µM (inactive)	2.94 µM (inactive)	
